Assays:
[1] = test system: stress-induced ulcer formation; test: Water immersion stress-induced ulcers test; format: in vivo, rat; conditions: for Score for the Presence of Ulcers Mean ± SEM: score 0-4; for Ulceration Index: ulcer score x percentage of stomachs showing ulcers; for effect on ulcer score: text summary of Table 4
[2] = test system: colonic propulsive motility; test: Glass bead test (stimulated colonic propulsion); format: in vivo, mouse; conditions: for Expulsion Time Mean ± SEM: 30 minutes prior to bead insertion, cutoff 30 minutes, in min
Experimental: In the test, usually performed in mice, a 3-mm glass bead is inserted through the anus into the distal colon (using a glass rod) to a depth of 2 cm. The time to expel the glass bead is then measured; normally, the glass bead is expelled in approximately 10 minutes. This model is especially sensitive to compounds with inhibitory effects on stretch-stimulated propulsive motor activity; as such, it is often used as an animal model for IBS. A test compound that inhibits stretch-stimulated-colonic propulsive motility, may be used to treat gastrointestinal dysfunction, including IBS. […] The glass bead test is commonly used to evaluate the ability of compounds to affect stimulated colonic propulsion. In the test, usually performed in mice, a 3-mm glass bead is inserted through the anus into the distal colon (using a glass rod) to a depth of 2 cm. The time to expel the glass bead is then measured; normally, the glass bead is expelled in approximately 10 minutes. This model is especially sensitive to compounds with inhibitory effects on stretch-stimulated propulsive motor activity; as such, it is often used as an animal model for IBS. In each study, RS— and R-tofisopam were evaluated for their ability to increase or decrease the time for expulsion of the glass bead.

[3] = test system: gastrointestinal propulsive motility; test: Charcoal meal test (basal gastrointestinal propulsive motility); format: in vivo, rat; conditions: for % Inhibition: numbers in parentheses indicate % increase; for effect on charcoal meal transit: R-tofisopam at the highest dose tested, loperamide positive control
[4] = test system: abdominal contractions induced by colonic distension; test: Visceral hypersensitivity, pain and bloating test (colonic distension after 1% acetic acid); format: in vivo, rat
stress-induced ulcers = conditions: pre-treatment 30 or 100 mg/kg PO; cited from earlier work
gastric function = conditions: cited from earlier work
[5] = test system: hydrochloric acid-induced, alkali-induced and cauterization-induced ulcers; conditions: in vivo; cited from earlier work
[6] = test system: dextran sulfate sodium-induced colitis; test: Dextran sulfate sodium-induced colitis; format: in vivo; conditions: DSS 5% solution in tap water
Source text: Another gastrointestinal disorder model tested was the dextran sulfate sodium-induced colitis. In this model of colitis, an acute inflammation of the colon is produced by administration of dextran sulfate sodium (DSS) as a 5% solution in tap water. This colitis is characterized by histological events and an influx of neutrophils, macrophages and mediators of inflammation similar to those observed with human inflammatory bowel diseases.

[7] = test system: dextran sulfate sodium-induced colitis; conditions: in vivo; cited from earlier work
[8] = first experiment, 64 mg/kg IP, 30 minutes prior to charcoal meal
[9] = 8 mg/kg IP 30 minutes prior to water immersion

For `CN1C(=O)CC(=O)N(c2ccccc2)c2cc(Cl)ccc21` [Clobazam, clobazam], the “% of Stomachs Showing Ulcers” value ([1]; 16 mg/kg IP) was 100%, the “Score for the Presence of Ulcers Mean ± SEM” value (“Score … of Ulcers Mean ± SEM” below) ([1]; 16 mg/kg IP) was 3.6 ± 0.2 and the “Ulceration Index” value ([1]; 16 mg/kg IP) was 363. For the same molecule, the “% of Stomachs Showing Ulcers” value ([1]; 32 mg/kg IP) was 75%, the “Score … of Ulcers Mean ± SEM” value ([1]; 32 mg/kg IP) was 2.6 ± 0.5 and the “Ulceration Index” value ([1]; 32 mg/kg IP) was 197. For the same molecule, the “effect on ulcer score” value [1] was “reduced the ulcer score slightly, but this effect was not statistically significant”.
With `CCC1C(C)=NN=C(c2ccc(OC)c(OC)c2)c2cc(OC)c(OC)cc21` (racemic) [RS-tofisopam, tofisopam] the “% Inhibition” value ([2]; 16 mg/kg IP) was 46%, the “Expulsion Time Mean ± SEM” value ([2]; 16 mg/kg IP) was 19.0 ± 2.8 and the “% Inhibition” value ([2]; 32 mg/kg IP) was 71%. For the same molecule, the “Expulsion Time Mean ± SEM” value ([2]; 32 mg/kg IP) was 23.7 ± 2.6, the “% Inhibition” value ([2]; 64 mg/kg IP) was 82% and the “Expulsion Time Mean ± SEM” value ([2]; 64 mg/kg IP) was 26.4 ± 2.4. The “% Intestine Traversed Mean ± SEM” value ([3]; first experiment, 16 mg/kg IP) was 73.5 ± 3.5%, the “% Inhibition” value ([3]; first experiment, 16 mg/kg IP) was 9.8% and the “% Intestine Traversed Mean ± SEM” value ([3]; first experiment, 32 mg/kg IP) was 77.7 ± 2.3%. For the same molecule, the “% Inhibition” value ([3]; first experiment, 32 mg/kg IP) was 4.7%, the “% Intestine Traversed Mean ± SEM” value [3, 8] was 81.7 ± 2.8% and the “% Inhibition” value ([3]; first experiment, 64 mg/kg IP) was 0%. The “% Intestine Traversed Mean ± SEM” value ([3]; second experiment, 4 mg/kg IP) was 77.9 ± 2.9%, the “% Intestine Traversed Mean ± SEM” value ([3]; second experiment, 8 mg/kg IP) was 78.3 ± 1.7% and the “% Intestine Traversed Mean ± SEM” value ([3]; second experiment, 16 mg/kg IP) was 70.4 ± 3.7%. For the same molecule, the “% Inhibition” value ([3]; second experiment, 16 mg/kg IP) was 5.8%, the “% Intestine Traversed Mean ± SEM” value ([3]; second experiment, 32 mg/kg IP) was 65.6 ± 4.5% and the “% Inhibition” value ([3]; second experiment, 32 mg/kg IP) was 12.2%. The “effect on number of abdominal contractions versus vehicle control” value ([4]; 32 mg/kg) was “did not significantly modify”, the “% of Stomachs Showing Ulcers” value ([1]; 8 mg/kg IP) was 100% and the “Score … of Ulcers Mean ± SEM” value [1, 9] was 3.4 ± 0.3. The “Ulceration Index” value ([1]; 8 mg/kg IP) was 338, the “% of Stomachs Showing Ulcers” value ([1]; 16 mg/kg IP) was 100% and the “Score … of Ulcers Mean ± SEM” value ([1]; 16 mg/kg IP) was 3.4 ± 0.3. The “Ulceration Index” value ([1]; 16 mg/kg IP) was 338, the “% of Stomachs Showing Ulcers” value ([1]; 32 mg/kg IP) was 100% and the “Score … of Ulcers Mean ± SEM” value ([1]; 32 mg/kg IP) was 3.5 ± 0.3. The “Ulceration Index” value ([1]; 32 mg/kg IP) was 350, the “% of Stomachs Showing Ulcers” value ([1]; 64 mg/kg IP) was 100% and the “Score … of Ulcers Mean ± SEM” value ([1]; 64 mg/kg IP) was 3.1 ± 0.3. The “Ulceration Index” value ([1]; 64 mg/kg IP) was 313, the “% of Stomachs Showing Ulcers” value ([1]; 128 mg/kg IP) was 75% and the “Score … of Ulcers Mean ± SEM” value ([1]; 128 mg/kg IP) was 2.4 ± 0.4. The “Ulceration Index” value ([1]; 128 mg/kg IP) was 178, the “reduction of number of stress-induced ulcers and total area of ulceration” value (stress-induced ulcers) was ≤ 90% and the “effect on basal gastric acid output and mucosal blood flow” value (gastric function; intracerebroventricular injection 50 or 100 μg) was “increased both basal gastric acid output and mucosal blood flow”. The “effect on basal gastric acid output” value (gastric function; intravenous injection 10 mg/kg) was “did not change basal gastric acid output”, the “effect on cauterization-induced ulcers” value [5] was “promoted the healing” and the “effect on hydrochloric acid-induced and alkali-induced ulcers” value [5] was “suppressed the development”.
With `CN(C)C(=O)C(CCN1CCC(O)(c2ccc(Cl)cc2)CC1)(c1ccccc1)c1ccccc1` [Loperamide, loperamide] the “% Intestine Traversed Mean ± SEM” value ([3]; second experiment, 16 mg/kg IP) was 28.1 ± 2.2 %, the “% Inhibition” value ([3]; second experiment, 16 mg/kg IP) was 62.5% and the “effect on charcoal meal transit” value ([3]; second experiment) was “considerable slowing”.
With `CC[C@H]1C(C)=NN=C(c2ccc(OC)c(OC)c2)c2cc(OC)c(OC)cc21` [R-tofisopam, (R)-1-(3,4-dimethoxyphenyl)-4-methyl-5-ethyl-7,8-dimethoxy-5H-2,3-benzodiazepine] the “% Inhibition” value ([2]; 16 mg/kg IP) was 100%, the “Expulsion Time Mean ± SEM” value ([2]; 16 mg/kg IP) was 30.0 ± 0.0 and the “% Inhibition” value ([2]; 32 mg/kg IP) was 99%. The “Expulsion Time Mean ± SEM” value ([2]; 32 mg/kg IP) was 29.7 ± 0.3, the “% Inhibition” value ([2]; 64 mg/kg IP) was 90% and the “Expulsion Time Mean ± SEM” value ([2]; 64 mg/kg IP) was 28.0 ± 1.1. For the same molecule, the “effect on colonic expulsion” value ([2]; text summary of Table 1, 16-64 mg/kg IP) was “significantly prolonged (i.e., slowed) colonic expulsion”, the “% Intestine Traversed Mean ± SEM” value ([3]; first experiment, 16 mg/kg IP) was 82.8 ± 3.1% and the “% Intestine Traversed Mean ± SEM” value ([3]; first experiment, 32 mg/kg IP) was 85.4 ± 2.9%. The “% Intestine Traversed Mean ± SEM” value [3, 8] was 72.9 ± 2.9 %, the “% Inhibition” value ([3]; first experiment, 64 mg/kg IP) was 10.6% and the “% Intestine Traversed Mean ± SEM” value ([3]; second experiment, 4 mg/kg IP) was 71.72 ± 3.2%. The “% Inhibition” value ([3]; second experiment, 4 mg/kg IP) was 4.1%, the “% Intestine Traversed Mean ± SEM” value ([3]; second experiment, 8 mg/kg IP) was 75.2 ± 4.1% and the “% Intestine Traversed Mean ± SEM” value ([3]; second experiment, 16 mg/kg IP) was 65.7 ± 3.0%. The “% Inhibition” value ([3]; second experiment, 16 mg/kg IP) was 12.1%, the “% Intestine Traversed Mean ± SEM” value ([3]; second experiment, 32 mg/kg IP) was 59.5 ± 3.2 % and the “% Inhibition” value ([3]; second experiment, 32 mg/kg IP) was 20.3%. The “effect on charcoal meal transit” value ([3]; second experiment) was “only a slight inhibition”, the “decrease of abdominal cramps versus vehicle control” value ([4]; 32 mg/kg p.o.) was 49% and the “number of abdominal cramps” value ([4]; 32 mg/kg p.o., vehicle control 18.8 cramps) was 9.5±1.7 cramps. The “% of Stomachs Showing Ulcers” value ([1]; 8 mg/kg IP) was 100%, the “Score … of Ulcers Mean ± SEM” value [1, 9] was 3.6 ± 0.3 and the “Ulceration Index” value ([1]; 8 mg/kg IP) was 363. The “% of Stomachs Showing Ulcers” value ([1]; 16 mg/kg IP) was 88%, the “Score … of Ulcers Mean ± SEM” value ([1]; 16 mg/kg IP) was 3.1 ± 0.5 and the “Ulceration Index” value ([1]; 16 mg/kg IP) was 273. The “% of Stomachs Showing Ulcers” value ([1]; 32 mg/kg IP) was 88%, the “Score … of Ulcers Mean ± SEM” value ([1]; 32 mg/kg IP) was 3.1 ± 0.5 and the “Ulceration Index” value ([1]; 32 mg/kg IP) was 273. For the same molecule, the “% of Stomachs Showing Ulcers” value ([1]; 64 mg/kg IP) was 29%, the “Score … of Ulcers Mean ± SEM” value ([1]; 64 mg/kg IP) was 1.7 ± 0.6 and the “Ulceration Index” value ([1]; 64 mg/kg IP) was 49. For the same molecule, the “% of Stomachs Showing Ulcers” value ([1]; 128 mg/kg IP) was 38%, the “Score … of Ulcers Mean ± SEM” value ([1]; 128 mg/kg IP) was 1.4 ± 0.2 and the “Ulceration Index” value ([1]; 128 mg/kg IP) was 52. The “effect on ulcer score” value [1] was “significantly reduced the ulcer score” and the “effect in DSS colitis model compared with racemic tofisopam” value [6] was “substantially greater effect”.
In the case of `O=C(O)c1cc(/N=N/c2ccc(S(=O)(=O)Nc3ccccn3)cc2)ccc1O` [sulfasalazine], the “activity in DSS colitis model” value [7] is given as “have been shown to have activity in this model”.

From US20040229867A1, “Treatment of gastrointestinal dysfunction and related stress with an enantiomerically-pure (R) 2,3-benzodiazepine” (priority 2003, published 2004)
